Experimental data reported in patent US7951548B2, “IL-13 production inhibitor” (Takeda Pharmaceutical Company Limited, priority 2005, dated 2011).

Legend:
[1] = system: rat primary culture microglial cells (PMGC); experiment: Phosphorylation of ERK1/2 in PMGC; format: cell-based; conditions: lysoPS
[2] = system: rat peritoneal mast cells; experiment: Expression of IL-13 in rat peritoneal mast cells (TaqMan PCR, GAPDH corrected); format: cell-based
Procedure: Rat peritoneal mast cells (hereinafter RPMC) were prepared as follows. Ice-chilled mast cell medium (hereinafter MCM; 150 mM NaCl, 3.7 mM KCl, 3.0 mM NaH2PO4, 3.5 mM KH2PO4, 5.6 mM (D)-Glucose, 0.1% bovine serum albumin (hereinafter BSA), 0.1% gelatin, 10 U/ml heparin, pH 6.8) was injected into the peritoneal cavity in about 40 ml/animal. After some massage of the rat abdominal region for about 2 minutes, the peritoneal cavity was opened along the median line to drain the ascitic fluid. The ascetic fluid prepared was filtered through a cell strainer (Becton Dickinson) and centrifuged at 50×g for 7 minutes. The cells precipitated were suspended in MCM and centrifuged again at 50×g for 7 minutes. After the precipitated cells were resuspended in MCM, the suspension was layered on 2 ml of 32% (w/v) BSA solution (dissolved in 0.9% NaCl), which was allowed to stand at room temperature for 20 minutes. After centrifugation was conducted at ×300 g for 15 minutes at room temperature, the cells in the interphase between MCM and BSA solution were discarded and the precipitated cells were suspended in MCM. The suspension was centrifuged at ×300 g for 5 minutes to wash the cells twice. The precipitated cells were suspended in assay buffer (RPMI 1640 medium (Invitrogen), 0.1% BSA) and the cells were provided for the following experiment. […] RPMC was activated as follows. RPMC was suspended in assay buffer and 10 μg/ml of monoclonal mouse antibody DNP-IgE (Yamasa) was added thereto. The mixture was allowed to stand for 30 minutes on ice for passive sensitization. After centrifugation at ×300 g for 5 minutes, the precipitated cells were washed 3 times with assay buffer. RPMC suspended in assay buffer was dispensed into a 96 well V-bottomed plate in 2×10^5/well. The assay was performed at n=3 under the respective reaction conditions. After a plate was kept warm at 37° C. for 5 minutes, lysoPS (Sigma) of 3 μM in a final concentration or DNP-BSA (Carbiochem) of 100 ng/ml in a final concentration was added depending on the assay conditions and the plate was allowed to stand at 37° C. in a 5% CO2 incubator. The plate was ice-cooled 2, 4, 6 and 8 hours after to terminate the activation of RPMC. Centrifugation was performed at ×300 g for 5 minutes and the total RNA was extracted from the cells precipitated using RNeasy Mini Kit (Qiagen) in accordance with the protocol attached. The obtained total RNA was concentrated and dissolved in RNase-free H2O in accordance with the protocol attached. Next, using 250 ng of the total RNA, reverse transcription was performed by the following procedure using SuperScript II ReverseTranscriptase (Invitrogen) to prepare single-stranded cDNA. After 0.5 μg of Oligo (dT) 12-18 primer (Invitrogen) and 1 μl of 10 mM dNTP (Invitrogen) were added to the total RNA solution and then RNase-free H2O was added to make the whole volume 12 μl, incubation was performed at 70° C. for 10 minutes followed by ice cooling for a minute. After adding 4 μl of 5× First-Strand Buffer (attached to SuperScript II ReverseTranscriptase), 2 μl of 0.1M DTT (attached to SuperScript II ReverseTranscriptase), 1 μl of RNaseOUT (Invitrogen) and 1 μl of SuperScript II ReverseTranscriptase, incubation was performed at 42° C. for 50 minutes and then at 70° C. for 15 minutes, followed by ice cooling for 5 minutes. The thus prepared cDNA was purified using Ethachinmate in accordance with the protocol attached and dissolved in Tris-EDTA Buffer (Fluka).
In TaqMan PCR below, rIL-13-tF (SEQ ID NO: 24) and rIL-13-tR (SEQ ID NO: 25) were used as primers and rIL-13-tP (SEQ ID NO: 26) as a probe for quantification of rat IL-13 (interleukin-13) and rIL-13 standard (SEQ ID NO: 27) was used as a standard. TaqMan Rodent GAPDH Control Reagents VIC Probe (Applied Biosystems) were used as primers and a probe for quantification of GAPDH, and rGAPDH standard (SEQ ID NO: 28) was used as a standard. […]

[3] = antigen (DNP-BSA 100 ng/ml)+lysoPS 3 μM, 4 hours after the stimulation
[4] = antigen+lysoPS 3 μM, 6 after the stimulation
[5] = antigen+lysoPS 3 μM, 8 hours after the stimulation

In the case of lysophosphatidylserine [lysoPS], the “phosphorylation of ERK1/2” value [1] was “also noted in PMGC”, the “expression level of IL-13 after GAPDH correction, compared to stimulation by the antigen alone” value [2, 3] was “about 36 times” and the “expression level of IL-13 after GAPDH correction, compared to the level without any stimulation” value [2, 3] was “about 27 times”. The “expression level of IL-13, compared to stimulation by the antigen alone” value [2, 4] was “about 19 times”, the “expression level of IL-13, compared to the level without any stimulation” value [2, 4] was “about 13 times” and the “expression level of IL-13 after GAPDH correction, compared to stimulation by the antigen alone” value [2, 5] was “about 27 times”. The “expression level of IL-13 after GAPDH correction, compared to the level without any stimulation” value [2, 5] was “about 13 times” and the “expression level of IL-13 (in words)” value ([2]; stimulated by the antigen+lysoPS) was “marked increase in expression”.
